Source: patent US20190185829A1, “Preparation of lipase with improved ester synthesis activity by using surfactants” (Jiangnan University, priority 2017, published 2019)

Experiments:
Assay type in all cases: biochemical
[1] = test system: Rhizopus chinensis lipase r27RCL; assay: Ester synthesis activity of surfactant-treated lyophilized lipase r27RCL by GC analysis; conditions: surfactant 10 mM, protein 0.2 mg·mL^−1
Experimental: (§1) (2) Determination of Ester Synthesis Activity of the Lipase by GC Analysis
(§2) Substrate solution A: 48.5 mL of n-octanoic acid is dissolved in 250 mL of n-heptane in a volumetric flask.
(§3) Substrate solution B: 17.5 mL of absolute ethanol is dissolved in 250 mL of n-heptane in a volumetric flask.
(§4) Internal standard: 2-hexanol/n-heptane (35 g·L^−1).
(§5) Standard sample: 10 g of n-octanoate is dissolved in 1000 mL of n-heptane in a volumetric flask.
(§6) 1 mL substrate solution A and substrate solution B are added in a 5 mL Eppendorf tube respectively, then 20 mg lipase powder (or lyophilized powder) is added. The reaction is carried out at 40° C. and with shaking at 150 rpm for 30 min. Remove the lipase powder by centrifugation or membrane filtration. Then 0.1 mL of internal standard is added in 0.4 mL of filtrate or supernatant and mixed. Measure the content of n-octanoate in the mixture above by GC analysis.
(§7) The gas chromatograph (6820, Agilent Instruments) is equipped with a AC20 (PEG20000) capillary column and a FID detector. Nitrogen was used as the carrier gas. The oven temperature was programmed to start at 90° C. for 1 min and then be elevated to 200° C. for 5 min at 10° C.·min^−1. The injector and detector temperatures were set at 250° C.
(§8) Definition of enzyme activity: One unit of ester synthesis activity is defined as the amount of enzyme that esterifies 1 micromole of n-octanoate per min.
(§9) Specific activity: the activity of lipase per milligram of total protein in the lipase preparation.
(§10) Total recovery: the percentage of the activity after a treatment to that before the treatment
(§11) Add an equal volume of high-concentration surfactant solution into the enzyme solution. The final protein concentration was […] and the surfactant concentration was 10 mM. After mixed thoroughly, the mixture was lyophilized and kept in dry condition.
(§12) Commercial lipase r27RCL was purchased from Jiangsu Yiming Biological Technology Co., Ltd, which has high hydrolytic activity and low ester synthesis activity. Dissolve the r27RCL powder in water and centrifuge to obtain the supernatant containing the r27RCL lipase to adjust the ester synthesis activity (the final protein concentration was 0.2 mg·mL^−1 and the final concentration of surfactant was 10 mM, which is between 0.1×CMC^˜200×CMC of the different surfactants in Table 1).
(§13) Commercial lipase r27RCL was purchased from Jiangsu Yiming Biological Technology Co., Ltd. r27RCL is a lipase with high hydrolytic activity but low ester synthesis activity. Dissolve the r27RCL powder in water, centrifuge to obtain the supernatant and treat the supernatant with different concentrations of surfactant LPC14 (the final protein concentration was 0.2 mg·mL^−1).

[2] = test system: Rhizopus chinensis lipase r27RCL; assay: Hydrolytic activity of surfactant-treated lipase r27RCL using pNPP as substrate; conditions: surfactant 10 mM, protein 0.2 mg·mL^−1
Description: (§14) (1) Determination of Hydrolytic Activity of the Lipase Using p-Nitrophenyl Palmitate (pNPP) as Substrate
(§15) Hydrolysis of pNPP catalyzed by lipase generates p-nitrophenol and palmitic acid. p-nitrophenol appears yellow in the buffer at pH 8.0 with the maximum absorption peak at 410 nm. Determination of hydrolytic activity can be achieved by measuring the absorbance at 410 nm.
(§16) The substrate solution A: 50 mmol·L^−1 sodium phosphate buffer (pH 8.0) containing 1.16 g·L^−1 sodium deoxycholate and 0.56 g·L^−1 arabic gum. Substrate solution B: 0.015 g pNPP is dissolved in 5 mL isopropyl alcohol. Substrate solution A and substrate solution B are mixed then stored for use afterwards.
(§17) Termination solution: 40 g·L^−1 NaOH, 93.05 g·L^−1 EDTA sodium. Add 62 uL termination solution to the reaction mixture when stopping the reaction.
(§18) Add 0.1 mL appropriately diluted enzyme solution, which is substituted by inactivated enzyme solution as the control, to 2.4 mL substrate solution above, incubate the mixture at 40° C. for 2 min and measure the absorbance at 410 nm.
(§19) one hydrolytic activity unit is defined as the amount of enzyme that catalyzes the formation of 1 μmol of p-nitrophenol in 1 minute at 40° C.
(§20) enzyme activity (U·mL^−1)=(V×A410×10^6)/(ε×t×V′) Calculation equation: […]
(§21) Specific activity: the activity of lipase per milligram of total protein in the lipase preparation. […]
as §12, §13

[3] = molecular target: T1, Rhizoupus oryzae lipase ROL (Rhizopus oryzae, UniProt P61872); assay: Ester synthesis activity of surfactant-treated lyophilized lipase ROL by GC analysis; conditions: surfactant 10 mM, protein 0.2 mg·mL^−1
T1 construct: purchased Sigma-Aldrich Co., Ltd
T1 sequence (P61872 96-392): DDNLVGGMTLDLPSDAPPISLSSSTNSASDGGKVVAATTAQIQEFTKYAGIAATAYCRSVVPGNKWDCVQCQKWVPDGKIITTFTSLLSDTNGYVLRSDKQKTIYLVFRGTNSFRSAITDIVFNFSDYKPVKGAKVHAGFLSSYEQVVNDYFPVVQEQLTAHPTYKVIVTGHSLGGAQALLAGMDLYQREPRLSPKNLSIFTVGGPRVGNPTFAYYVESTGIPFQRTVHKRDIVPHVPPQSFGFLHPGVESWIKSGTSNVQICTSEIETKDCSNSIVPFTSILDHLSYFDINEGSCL
Experimental: as §1, §2, §3, §4, §5, §6, §7, §8, §9, §10, §11
(§22) Commercial lipase ROL was purchased from Sigma-Aldrich Co., Ltd. ROL is a non-immobilized lipase. Dissolve the ROL powder in water and centrifuge to obtain the supernatant containing the ROL lipase that would be regulated to improve its ester synthesis activity by adjusting the final protein concentration to 0.2 mg·mL^−1 and adding surfactants to the final concentration of 10 mM.
(§23) Commercial lipase ROL was purchased from Sigma-Aldrich Co., Ltd. and is a non-immobilized lipase. Dissolve the ROL powder in water, centrifuge to obtain the supernatant and treat the supernatant with different concentrations of surfactant LPC14 (the final protein concentration was 0.2 mg·mL^−1).

[4] = molecular target: T1, Rhizoupus oryzae lipase ROL; assay: Hydrolytic activity of surfactant-treated lipase ROL using pNPP as substrate; conditions: surfactant 10 mM, protein 0.2 mg·mL^−1
Description: as §14, §15, §16, §17, §18, §19, §20, §21, §22, §23

[5] = molecular target: T2, Pseudomonas cepacia lipase PCL (Burkholderia cepacia, UniProt P22088); assay: Ester synthesis activity of surfactant-treated lyophilized lipase PCL by GC analysis; conditions: protein 0.2 mg·mL^−1
T2 construct: purchased Sigma-Aldrich Co., Ltd
T2 sequence (P22088 45-364): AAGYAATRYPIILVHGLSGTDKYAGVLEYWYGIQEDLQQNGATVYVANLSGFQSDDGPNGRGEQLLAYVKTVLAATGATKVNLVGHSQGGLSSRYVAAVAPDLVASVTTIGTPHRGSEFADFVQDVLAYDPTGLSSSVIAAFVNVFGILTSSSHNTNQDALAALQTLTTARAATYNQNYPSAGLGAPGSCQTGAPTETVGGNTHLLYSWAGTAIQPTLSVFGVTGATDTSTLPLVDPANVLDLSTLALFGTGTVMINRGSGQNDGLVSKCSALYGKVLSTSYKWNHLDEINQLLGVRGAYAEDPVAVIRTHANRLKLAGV
Experimental: as §1, §2, §3, §4, §5, §6, §7, §8, §9, §10, §11
as §22, with “PCL” for “ROL”, “the” for “its”
(§24) Commercial lipase PCL was purchased from Sigma-Aldrich Co., Ltd. and is a non-immobilized lipase. Dissolve the PCL powder in water, centrifuge to obtain the supernatant and treat the supernatant with different concentrations of surfactant DDM (the final protein concentration was 0.2 mg·mL^−1).

[6] = molecular target: T2, Pseudomonas cepacia lipase PCL; assay: Hydrolytic activity of surfactant-treated lipase PCL using pNPP as substrate; conditions: protein 0.2 mg·mL^−1
Description: as §14, §15, §16, §17, §18, §19, §20, §21
as §22, with “PCL” for “ROL”, “the” for “its”
as §24

[7] = molecular target: T3, Candida antarctica lipase CALB (Moesziomyces antarcticus, UniProt P41365); assay: Ester synthesis activity of surfactant-treated lyophilized lipase CALB by GC analysis; conditions: protein 0.12 mg·mL^−1
T3 construct: purchased Sigma-Aldrich Co., Ltd
T3 sequence (P41365 26-342): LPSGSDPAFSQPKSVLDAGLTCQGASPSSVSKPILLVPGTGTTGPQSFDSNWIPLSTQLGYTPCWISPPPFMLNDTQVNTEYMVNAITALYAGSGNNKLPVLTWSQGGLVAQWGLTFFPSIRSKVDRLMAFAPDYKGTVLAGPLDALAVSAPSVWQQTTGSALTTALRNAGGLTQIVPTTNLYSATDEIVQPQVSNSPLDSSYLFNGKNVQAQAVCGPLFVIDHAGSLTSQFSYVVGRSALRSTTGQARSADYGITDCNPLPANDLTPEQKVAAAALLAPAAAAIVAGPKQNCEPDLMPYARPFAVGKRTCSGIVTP
Experimental: as §1, §2, §3, §4, §5, §6, §7, §8, §9, §10, §11
as §22, with “CALB” for “ROL”, “the” for “its”, “0.12” for “0.2”
(§25) Commercial lipase CALB was purchased from Sigma-Aldrich Co., Ltd. and is a non-immobilized lipase. Dissolve the CALB powder in water, centrifuge to obtain the supernatant and treat the supernatant with different concentrations of surfactant DDM (the final protein concentration was 0.12 mg·mL^−1).

[8] = molecular target: T3, Candida antarctica lipase CALB; assay: Hydrolytic activity of surfactant-treated lipase CALB using pNPP as substrate; conditions: protein 0.12 mg·mL^−1
Description: as §14, §15, §16, §17, §18, §19, §20, §21
as §22, with “CALB” for “ROL”, “the” for “its”, “0.12” for “0.2”
as §25

[9] = surfactant concentration 0.1 x CMC
[10] = surfactant concentration 1 x CMC
[11] = surfactant concentration 10 x CMC
[12] = surfactant concentration 100 x CMC

CCCCCCCCCCCCO[C@@H]1O[C@H](CO)[C@@H](O[C@H]2O[C@H](CO)[C@@H](O)[C@H](O)[C@H]2O)[C@H](O)[C@H]1O [DDM, n-dodecyl-ß-D-maltopyranoside]
Ester synthesis activity, Specific activity [1]: 31.4 U · mg^−1
Hydrolytic activity, Specific activity [2]: 135.0 U · mg^−1
Hydrolytic activity, Total recovery [2]: 94%
Ester synthesis activity, Specific activity [3]: 2.8 U · mg^−1
Hydrolytic activity, Specific activity [4]: 42.7 U · mg^−1
Hydrolytic activity, Total recovery [4]: 116%
Ester synthesis activity, Specific activity ([5]; surfactant 10 mM): 55.6 U · mg^−1
Ester synthesis activity, Specific activity [5, 9]: 3.2 U · mg^−1
Ester synthesis activity, Total recovery [5, 9]: 58%
Ester synthesis activity, Specific activity [5, 10]: 2.9 U · mg^−1
Ester synthesis activity, Total recovery [5, 10]: 57%
Ester synthesis activity, Specific activity [5, 11]: 20.0 U · mg^−1
Ester synthesis activity, Total recovery [5, 11]: 260%
Ester synthesis activity, Specific activity [5, 12]: 101.6 U · mg^−1
Hydrolytic activity, Specific activity ([6]; surfactant 10 mM): 327.7 U · mg^−1
Hydrolytic activity, Total recovery ([6]; surfactant 10 mM): 111%
Hydrolytic activity, Specific activity [6, 9]: 499.5 U · mg^−1
Hydrolytic activity, Total recovery [6, 9]: 106%
Hydrolytic activity, Specific activity [6, 10]: 434.7 U · mg^−1
Hydrolytic activity, Total recovery [6, 10]: 99%
Hydrolytic activity, Specific activity [6, 11]: 756.7 U · mg^−1
Hydrolytic activity, Total recovery [6, 11]: 114%
Hydrolytic activity, Specific activity [6, 12]: 773.5 U · mg^−1
Hydrolytic activity, Total recovery [6, 12]: 246%
Ester synthesis activity, Specific activity ([7]; surfactant 10 mM): 101.9 U · mg^−1
Ester synthesis activity, Specific activity [7, 9]: 4.0 U · mg^−1
Ester synthesis activity, Total recovery [7, 9]: 12%
Ester synthesis activity, Specific activity [7, 10]: 14.3 U · mg^−1
Ester synthesis activity, Total recovery [7, 10]: 50%
Ester synthesis activity, Specific activity [7, 11]: 37.3 U · mg^−1
Ester synthesis activity, Total recovery [7, 11]: 73%
Ester synthesis activity, Specific activity [7, 12]: 32.6 U · mg^−1
Ester synthesis activity, Total recovery [7, 12]: 189%
Hydrolytic activity, Specific activity ([8]; surfactant 10 mM): 0 U · mg^−1
Hydrolytic activity, Total recovery ([8]; surfactant 10 mM): 0%
Hydrolytic activity, Specific activity [8, 9]: 2.1 U · mg^−1
Hydrolytic activity, Total recovery [8, 9]: 45%
Hydrolytic activity, Specific activity [8, 10]: 3.0 U · mg^−1
Hydrolytic activity, Total recovery [8, 10]: 75%
Hydrolytic activity, Specific activity [8, 11]: 0.7 U · mg^−1
Hydrolytic activity, Total recovery [8, 11]: 10%
Hydrolytic activity, Specific activity [8, 12]: 0 U · mg^−1
Hydrolytic activity, Total recovery [8, 12]: 0%

CCCCCCCCCCCCOCCOCCOCCOCCOCCOCCOCCOCCO [C12E8, octaethylene glycol monododecyl ether]
Ester synthesis activity, Specific activity [1]: 22.2 U · mg^−1
Hydrolytic activity, Specific activity [2]: 117.1 U · mg^−1
Hydrolytic activity, Total recovery [2]: 101%
Ester synthesis activity, Specific activity [3]: 2.6 U · mg^−1
Hydrolytic activity, Specific activity [4]: 23.7 U · mg^−1
Hydrolytic activity, Total recovery [4]: 82%
Ester synthesis activity, Specific activity ([5]; surfactant 10 mM): 4.6 U · mg^−1
Ester synthesis activity, Total recovery ([5]; surfactant 10 mM): 130%
Hydrolytic activity, Specific activity ([6]; surfactant 10 mM): 281.1 U · mg^−1
Hydrolytic activity, Total recovery ([6]; surfactant 10 mM): 98%
Ester synthesis activity, Specific activity ([7]; surfactant 10 mM): 62.8 U · mg^−1
Hydrolytic activity, Specific activity ([8]; surfactant 10 mM): 0 U · mg^−1
Hydrolytic activity, Total recovery ([8]; surfactant 10 mM): 0%
